Assay results taken from US20260008746A1, “CATIONIC LIPID COMPOUND WITH HIGH EFFICIENCY, LOW TOXICITY AND STABLE EXPRESSION, AND COMPOSITION COMPRISNG SAME” (HANGZHOU TIANLONG PHARMACEUTICAL CO., LTD, priority 2023, published 2026).

How the values were obtained:
[1] = Determination of particle size and polydispersity index (PDI) of lipid nanoparticles by dynamic light scattering; assay type: physicochemical; settings: LNP formulation of named cationic lipid/DSPC/cholesterol/DMG-PEG2000 49:10:39.5:1.5; for Particle size (nm): 90° scattering angle, 25° C
In short: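 LNPs of cationic lipid/DSPC/cholesterol/DMG-PEG2000 (49:10:39.5:1.5 mol%), lipid:mRNA 15:1 w/w, carrying eGFP or Fluc mRNA, made by ethanol injection into citrate buffer pH 4–5, sonicated, PBS-exchanged by ultrafiltration. Size and PDI by dynamic light scattering after dilution in RNase-free water, 90° angle, 25 °C, triplicate.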

293T cells [2] = test: Fluorescent detection of Fluc-mRNA (cell transfection efficiency of LNP formulations); assay type: cell-based; settings: for Relative light unit (RLU): LNP formulation containing 0.3 μg Fluc-mRNA, 96-well plate, 24 hours; for Multiples (YK-107): RLU of YK-107 / RLU of named substance; for Ratio relative to SM-102: RLU of named substance / RLU of SM-102
In short: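 293T cells seeded at 10,000 per well, cultured overnight, then given LNP carrying 0.3 μg Fluc-mRNA (cationic:neutral:structured:PEG-lipid 49:10:39.5:1.5 molar). Incubated 24 h. Luciferase signal read with kit reagent on an IVIS imaging system.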

293T cells [3] = test: Cell survival rate determination (CCK-8); assay type: cell-based; settings: for Cell survival rate (%): LNP formulation containing 1.5 μg Fluc-mRNA, 24 hours, CCK-8, absorbance at 450 nm; for cell survival rate lower than that of YK-101: cell survival rate of YK-101 minus that of named substance; for cell survival rate lower than that of YK-107: cell survival rate of YK-107 minus that of named substance; for cell survival rate lower than that of YK-108: cell survival rate of YK-108 minus that of named substance
In short: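 293T cells were seeded overnight at 10,000 cells/well in 96-well plates, then exposed for 24 h to LNP containing 1.5 μg Fluc-mRNA (cationic:neutral:structural:polymer-conjugated lipid, 49:10:39.5:1.5 molar) or to Lipofectamine 3000. Viability was read by CCK-8, 1 h incubation, absorbance 450 nm.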

BALB/C mice = test: In vivo imaging of Fluc-mRNA expression in mice delivered by LNP formulations
In short: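 Female BALB/C mice (4-6 weeks, 17-19 g) received LNP carrying […] Fluc-mRNA intramuscularly. Substrate was given intraperitoneally at 6 h, 24 h, 48 h and 7 d, and average radiance was imaged by IVIS 5 min later.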

[4] = LNP containing 10 pg Fluc-mRNA, intramuscular, female BALB/C mice, 6 h
[5] = LNP containing 10 pg Fluc-mRNA, intramuscular, female BALB/C mice, 24 h
[6] = LNP containing 10 pg Fluc-mRNA, intramuscular, female BALB/C mice, 7 d

| SMILES | PDI(%) [1] | Particle size (nm) [1] | Relative light unit (RLU) (293T cells [2]) | Multiples (YK-107) (293T cells [2]) | Ratio relative to SM-102 (293T cells [2]) | Cell survival rate (%) (293T cells [3]) | cell survival rate lower than that of YK-101 (293T cells [3]) | cell survival rate lower than that of YK-107 (293T cells [3]) | cell survival rate lower than that of YK-108 (293T cells [3]) | average radiation intensity of YK-101, times that of named substance (BALB/C mice; 6 h) | average radiation intensity of YK-107, times that of named substance (BALB/C mice; 6 h) | average radiation intensity of YK-108, times that of named substance (BALB/C mice; 6 h) | average radiation intensity of YK-101, times that of named substance (BALB/C mice; 24 h) | average radiation intensity of YK-107, times that of named substance (BALB/C mice; 24 h) | average radiation intensity of YK-108, times that of named substance (BALB/C mice; 24 h) | average radiation intensity of YK-101, times that of named substance (BALB/C mice; 48 h) | average radiation intensity of YK-107, times that of named substance (BALB/C mice; 48 h) | average radiation intensity of YK-108, times that of named substance (BALB/C mice; 48 h) | average radiation intensity of YK-101, times that of named substance (BALB/C mice; 7 d) | average radiation intensity of YK-107, times that of named substance (BALB/C mice; 7 d) | further results |
| --- | --- | --- | --- | --- | --- | --- | --- | --- | --- | --- | --- | --- | --- | --- | --- | --- | --- | --- | --- | --- | --- |
| CCCCCCCCCCOC(=O)CCCN(CCCCCC(=O)OCCC(CCCCCC)CCCCCC)CCOCCO [YK-123, 3-hexylnonyl 6-(4-(decyloxy)-4-oxobutyl)(2-(2-hydroxyethoxy-ethyl)amino)hexanoate] | 15.4% | 246 nm | 807703 RLU | 27.68 | 0.53 | 76.68% | 13.44% | 13.77% | 13.18% | 4.7 times | 5.0 times | 6.4 times | 18.0 times | 22.2 times | 23.9 times | 19.9 times | 24.2 times | 24.7 times | 8.6 times | 9.4 times | cell transfection efficiency, times that of YK-124 (293T cells [2]): 10 times; fluorescence absorption value, times that of HHMA (293T cells [2]; RLU of named substance / RLU of HHMA): 0.39 times; fluorescence absorption value, times that of Lipofectamine 3000 (293T cells [2]; RLU of named substance / RLU of Lipofectamine 3000): 0.75 times; Fluc-mRNA expression signal intensity, times that of compound 21 (293T cells [2]; RLU of named substance / RLU of compound 21): 0.58 times; fluorescence absorption value, times that of compound 23 (293T cells [2]; RLU of named substance / RLU of compound 23): 0.63 times; difference from SM-102 in Fluc-mRNA fluorescence (GraphPad Prism analysis) (293T cells [2]; statistical comparison with SM-102): no significant difference; average radiation intensity of YK-108, times that of named substance (BALB/C mice; 7 d): 10.0 times; average radiation intensity, 6 h (BALB/C mice; [4]): 317640; average radiation intensity, 24 h (BALB/C mice; [5]): 58728; average radiation intensity, 48 h (BALB/C mice; LNP containing 10 pg Fluc-mRNA, intramuscular, female BALB/C mice, 48 h): 9336; average radiation intensity, 7 d (BALB/C mice; [6]): 1414 |
| CCCCCCCCCCCCC(O)CN(C)CCCCCC(=O)OCC(CCCCCC)CCCCCCCC (stereo not drawn) [HHMA, reference compound] | 12.2% | 138 nm | 2047757 RLU | 10.92 | 1.33 | 67.77% | 22.35% | 22.68% | 22.09% | 2.3 times | 2.5 times | 3.2 times | 9.1 times | 11.3 times | 12.2 times | 6.0 times | 7.3 times | 7.5 times | 2.3 times | 2.5 times | Multiples (YK-101) (293T cells [2]; RLU of YK-101 / RLU of named substance): 9.93; Multiples (YK-108) (293T cells [2]; RLU of YK-108 / RLU of named substance): 12.04; average radiation intensity of YK-108, times that of named substance (BALB/C mice; 7 d): 2.7 times; average radiation intensity, 6 h (BALB/C mice; [4]): 639280; average radiation intensity, 24 h (BALB/C mice; [5]): 115530; average radiation intensity, 7 d (BALB/C mice; [6]): 5235 |
